In patent publication US8198462B2, “Dendritic photoactive compound comprising oxime ester and method for preparing the same” (LG Chem, Ltd., priority 2007, dated 2012):

Assay: Solubility of the photoinitiator in frequently used organic solvents
Type: physicochemical
Details: for Solubility in 3-MBA: solvent 3-methoxybutyl acetate (MBA); for Solubility in CH: solvent cyclohexanone (CH); for Solubility in DPM: solvent dipropylene glycol methyl ether (DPM); for Solubility in EEP: solvent ethyl-3-ethoxy propionate (EEP); for Solubility in PGMEA: solvent propylene glycol methyl ether acetate (PGMEA)
Method: For the comparison of the solubility of the compound that comprises oxime ester, in conjunction with Irgacure OXE-02 (Comparative Example 1) of Ciba Specialty Chemical, the solubilities of the compounds of Examples were measured in respects to the solvents that were frequently used, such as propylene glycol methyl ether acetate (PGMEA), dipropylene glycol methyl ether (DPM), 3-methoxybutyl acetate (MBA), ethyl-3-ethoxy propionate (EEP), and cyclohexanone (CH). The solubility was measured on the basis of how many grams of the photoinitiator were dissolved in 100 g of the solvent, and the results are described in the following Table 1.

Row | Compound | Solubility in 3-MBA | Solubility in DPM | Solubility in EEP | Solubility in CH | Solubility in PGMEA
1 | CC(=O)O/N=C(\CC(c1ccc(C(C/C(=N\OC(C)=O)c2ccccc2)N(OC(C)=O)C(C)=O)cc1)N(OC(C)=O)C(C)=O)c1ccccc1 (stereo not drawn) [Example 1] | 50 or more grams in 100 g of the solvent | 50 or more grams in 100 g of the solvent | 50 or more grams in 100 g of the solvent | 100 or more grams in 100 g of the solvent | 100 or more grams in 100 g of the solvent
2 | CCn1c2ccc(/C(CC(c3cccs3)N(OC(C)=O)C(C)=O)=N/OC(C)=O)cc2c2cc(/C(CC(c3cccs3)N(OC(C)=O)C(C)=O)=N/OC(C)=O)ccc21 (stereo not drawn) [Example 4] | 30 grams in 100 g of the solvent | 25 grams in 100 g of the solvent | 30 grams in 100 g of the solvent | 100 or more grams in 100 g of the solvent | 100 or more grams in 100 g of the solvent
3 | CCn1c2ccc(C(=O)c3ccccc3C)cc2c2cc(/C(C)=N/OC(C)=O)ccc21 [Comparative Example 1, reference compound] | 10 grams in 100 g of the solvent | 5 grams in 100 g of the solvent | 10 grams in 100 g of the solvent | 40 grams in 100 g of the solvent | 12 grams in 100 g of the solvent

Continued, in another order:

Row | Solubility in 3-MBA | Solubility in DPM | Solubility in EEP | Compound | Solubility in CH | Solubility in PGMEA
4 | 50 or more grams in 100 g of the solvent | 50 or more grams in 100 g of the solvent | 50 or more grams in 100 g of the solvent | CCn1c2ccc(/C(CC(c3ccc(SC)cc3)N(OC(C)=O)C(C)=O)=N/OC(C)=O)cc2c2cc(/C(CC(c3ccc(SC)cc3)N(OC(C)=O)C(C)=O)=N/OC(C)=O)ccc21 (stereo not drawn) [Example 5] | 100 or more grams in 100 g of the solvent | 100 or more grams in 100 g of the solvent
5 | 50 or more grams in 100 g of the solvent | 50 or more grams in 100 g of the solvent | 50 or more grams in 100 g of the solvent | CCn1c2ccc(/C(CC(c3ccccc3)N(OC(C)=O)C(C)=O)=N/OC(C)=O)cc2c2cc(/C(CC(c3ccccc3)N(OC(C)=O)C(C)=O)=N/OC(C)=O)ccc21 (stereo not drawn) [Example 3] | 100 or more grams in 100 g of the solvent | 100 or more grams in 100 g of the solvent
6 | 50 or more grams in 100 g of the solvent | 50 or more grams in 100 g of the solvent | 50 or more grams in 100 g of the solvent | CSc1ccc(C(C/C(=N\OC(C)=O)c2ccc(/C(CC(c3ccc(SC)cc3)N(OC(C)=O)C(C)=O)=N/OC(C)=O)cc2)N(OC(C)=O)C(C)=O)cc1 (stereo not drawn) [Example 2] | 100 or more grams in 100 g of the solvent | 100 or more grams in 100 g of the solvent
